The target in one series is T1, hERG (Homo sapiens, UniProt Q12809).
T1 construct: expressed in transfected cells; host or cells: CHO-K1 cells stably expressing human hERG; membrane fraction
Put plainly: Cy3B Dofetilide Fluoro-Ligand Binding Assay for hERG. Particulars: membranes of CHO-K1 cells that express hERG, pH 7.4, probe Cy3b-Dofetilide fluoro-ligand, 1.0 nM, hERG-expressing CHO-K1 membranes. As for the experimental part: Compound potencies were determined by a fluoro-ligand^§ (Cy3b-Dofetilide) fluorescence polarisation assay.
hERG-expressing CHO-K1 membranes* (60 μg/ml) were incubated with 1.0 nM fluoro-ligand^§, in assay buffer (25 mM HEPES, 1.2 mM MgCl2, 100 mM KCl and 0.1% pluronic, pH adjusted to 7.4 using 5M KOH). The final potassium concentration in the assay was 100 mM. After 70 min mixing at room temperature, in the dark, 10 μl was dispensed into each well of a black LV Greiner 384-well plate containing 0.1 μl of test compound in DMSO. The plates were left to equilibrate for 2 h before reading on an Acquest™/Analyst™ imager. pIC50 data were generated using from an 11-point inhibition curve (top assay concentration of 50 μM and a 1:3 step-dilution), a […] curve-fit being applied using ABase and XC50 to analyse data and generate curve fits.
Chinese Hamster Ovary (CHO) cells stably expressing the human hERG receptor were grown to 80% confluency before being harvested by trypsinisation and subsequent centrifugation at 500 g for 10 min. Cell pellets were frozen at −80 C before membrane production. The frozen pellet was thawed on ice, re-suspended and homogenised in 10 volumes of membrane buffer (50 mM HEPES, pH 7.4, 1 mM EDTA, 1 mM PMSF, 2×10^-6M Pepstatin A). The membrane suspension was centrifuged for 20 min at 500 g, the pellet discarded and the supernatent spun again at 48,000 g for 30 min. Following the second centrifugation the remaining pellet containing the membrane fraction was re-suspended in an appropriate volume (4 ml for each ml of frozen cell pellet) and assayed for protein concentration.
Background: Block of hERG is tested as a sign of cardiac risk.

The target of another series is T2, SYK lysate (Homo sapiens, UniProt P43405).
T2 construct: Stimulation of Ramos Cells with Anti-IgM Ab to Produce Syk & Preparation of Lysates; endogenous in cells; host or cells: Ramos B cells (human Burkitt's lymphoma, clone 296.4C10, ATCC), stimulated with anti-IgM and lysed in 1% Triton X-100
Put plainly: Basic Syk Enzyme Activity. The class given is biochemical. Particulars: read-out: average pIC50 (converted). The procedure: 3 μl of SYK lysate diluted 16-fold in assay buffer (20 mM TRIS pH 7.4, 0.01% BSA, 0.1% Pluronic F-68) was added to wells containing 0.1 μl of various concentrations of compound or DMSO vehicle (1.7% final) in a Greiner low volume 384 well black plate. Following 15 min pre-incubation at room temperature, the reaction was initiated by the addition of 3 μl of substrate reagent containing Y7 Sox peptide, (Invitrogen Cat. # KNZ3071, 5 μM final), ATP (35 μM final) and MgCl2 (10 mM final) in assay buffer. The reaction was incubated at room temperature before measuring fluorescence intensity (λex 360/λem 485) on an Envision plate reader (Perkin Elmer Life Sciences, Waltham, Mass., USA) at 15 min and 55 min post-substrate addition.
Ramos B Cells (human B cells of Burkitt's lymphoma, clone 296.4C10, ATCC) were cultured in suspension in growth medium (RPMI-1640, Sigma; supplemented with 2 mM L-glutamine, Gibco; 10 mM Hepes, Sigma; 1 mM sodium pyruvate, Sigma; 10% v/v heat-inactivated FCS, Gibco). Cells were grown in Corning Cellstacks (6360 cm^2) in 1 liter volume and viability and cell density were monitored daily. Cells were maintained at <1.5×10e6/ml and >92% viability.
Cells were stimulated at 20×10^6 cells/ml using 15 ug/ml (final concentration) anti-IgM antibody. Following harvest (as described above), a total of 4×10^9 cells were resuspended in 180 ml pre-warmed (37° C.) DPBS in a Corning 500 ml centrifuge bottle. 20 ml anti-IgM antibody at 150 ug/ml were added to each 500 ml centrifuge bottle (working stock made up in DPBS pre-warmed to 37° C.). Cells were incubated for exactly 5 min at 37° C. following the addition of anti IgM antibody. Following 5 min stimulation, 300 ml ice-cold DPBS were added to each bottle to stop the stimulation (temperature drops to ˜12° C.) then cells were centrifuged at 2000 rpm (Sorvall Legend RT+ centrifuge—pre-chilled to 4° C.). Cells were washed by resuspension in ice-cold DPBS and centrifugation as above. The cell pellet was then lysed in ice-cold lysis buffer containing 1% triton-x-100 at a ratio of 150 ul/1×10^7 cells (i.e. 48 ml lysis buffer). Following the addition of lysis buffer, the cells were pipetted up & down & kept on ice for 15 min. The clarified lysate was then obtained by centrifugation (Sorvall Evolution RC (SLA-1500 rotor, ˜20,000 g (˜14,500 rpm), 45 min, 4° C.).
Lysate was aliquoted, snap-frozen on dry-ice & stored at −80° C. prior to assay.
Lysis Buffer: 50 mM TRIS pH7.5+150 mM NaCl+1% Triton-X-100+2 mM EGTA+1:100 dilution inhibitor cocktails (phosphatase inhibitor cocktail set II, calbiochem cat no. 524625 & protease inhibitor cocktail set V, calbiochem cat no. 539137)

The test system of another series is Whole blood B cells. Kind of series: CD69 Whole Blood Assay. Particulars: Homo sapiens, B-cell, anti-IgM stimulated. The class given is cell-based. The procedure:
Whole blood B cells are stimulated ex-vivo using anti-IgM. […] The subsequent autophosphorylation of Syk leads to initiation of a signalling cascade resulting in B cell activation as indicated by expression of the activation marker CD69 on the cell surface. CD20/CD69+ve whole blood B cells are detected by flow cytometry.
100 μl heparinised human blood was added to a 5 ml polypropylene tube containing 1 μl appropriately diluted compound solution and incubated for 25 min at 37° C. with 5% CO2. B cells were stimulated with 10 μl Fab′2 fragments of goat anti-human IgM (43 μg/ml final concentration) for a further 3.5 h under the conditions previously described. The red blood cells were lysed and all other cells fixed by the addition of 2 ml Lyse/Fix buffer for 10 min at room temperature.
The cells were stained using a cocktail of mouse anti-human CD20 FITC and mouse anti-human CD69 PE conjugated antibodies. CD20/CD69+ve B cells present in the sample were detected by flow cytometry.
Compound was prepared as a 10 mM stock in DMSO, further diluted down in DMSO to 1 mM and a dilution series prepared in DMSO using 7 successive 3-fold dilutions to give the final concentration range to be tested of 1×10^−5 to 4.57×10^−9M. Compound dilutions were prepared using the Biomek 2000 automated robotic pipetting system.

A further series deals with B lymphoma (BKS-2). Particulars: mouse, in vivo; cited from earlier work.
For series [1], the system named is B-Cell non-Hodgkin's lymphoma (NHL). Particulars: cited from earlier work.
Series [2] relates to allergic rhinitis. Particulars: phase II; cited from earlier work.
Series [3] relates to allergic rhinitis. Particulars: intranasal, phase I/II; cited from earlier work.
[4] abbreviates: as the free base, read-out: average IC50.
The mark [5] stands for this setting: form not stated (first list), read-out: average pIC50 (converted).
The mark [6] stands for this setting: as the free base, read-out: average pIC50 (converted).
[7] abbreviates: hydrochloric acid salts, read-out: average IC50.
Setting [8] is: hydrochloric acid salts, read-out: average pIC50 (converted).

Structures are written as SMILES. Read-outs that look alike come from different tables or passages of the source. Where only a bound is given, the exact number is not on record here.

T1 sequence (Q12809 whole entry): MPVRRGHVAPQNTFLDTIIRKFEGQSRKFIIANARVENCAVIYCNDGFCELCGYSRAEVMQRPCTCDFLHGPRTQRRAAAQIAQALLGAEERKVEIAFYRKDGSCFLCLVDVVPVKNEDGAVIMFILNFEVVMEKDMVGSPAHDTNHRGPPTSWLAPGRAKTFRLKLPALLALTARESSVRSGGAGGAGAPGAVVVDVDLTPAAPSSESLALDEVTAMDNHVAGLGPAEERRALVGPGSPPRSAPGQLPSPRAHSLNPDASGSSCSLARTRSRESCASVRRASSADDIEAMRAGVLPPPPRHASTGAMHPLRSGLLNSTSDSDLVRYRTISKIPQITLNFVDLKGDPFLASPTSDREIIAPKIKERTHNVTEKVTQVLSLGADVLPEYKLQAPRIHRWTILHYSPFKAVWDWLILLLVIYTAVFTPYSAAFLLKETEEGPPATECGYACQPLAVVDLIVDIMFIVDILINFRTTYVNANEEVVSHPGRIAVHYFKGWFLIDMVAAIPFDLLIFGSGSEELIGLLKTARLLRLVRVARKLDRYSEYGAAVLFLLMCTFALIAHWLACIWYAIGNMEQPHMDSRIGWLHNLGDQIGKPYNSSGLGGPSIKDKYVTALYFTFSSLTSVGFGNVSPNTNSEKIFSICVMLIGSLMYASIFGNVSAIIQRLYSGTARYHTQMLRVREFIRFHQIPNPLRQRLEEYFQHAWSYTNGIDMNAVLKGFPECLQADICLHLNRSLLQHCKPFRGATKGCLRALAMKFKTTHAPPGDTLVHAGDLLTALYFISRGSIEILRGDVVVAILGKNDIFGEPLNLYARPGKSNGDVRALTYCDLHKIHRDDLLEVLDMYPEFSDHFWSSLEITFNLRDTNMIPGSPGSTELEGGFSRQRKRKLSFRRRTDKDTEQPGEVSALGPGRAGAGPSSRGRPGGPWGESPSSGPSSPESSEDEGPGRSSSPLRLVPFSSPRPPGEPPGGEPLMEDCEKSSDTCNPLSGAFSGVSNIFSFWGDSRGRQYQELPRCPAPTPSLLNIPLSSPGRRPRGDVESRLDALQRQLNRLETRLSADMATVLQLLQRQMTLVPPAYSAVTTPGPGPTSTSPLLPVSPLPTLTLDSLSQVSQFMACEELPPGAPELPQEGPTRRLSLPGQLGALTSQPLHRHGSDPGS

Regarding `CC(C)n1cc(-c2cc3ncccc3c(NCC3(F)CCCNC3)n2)cn1` (single isomer, unassigned) [Example 11A, N-{[3-fluoro-3-piperidinyl]methyl}-7-[1-(1-methylethyl)-1H-pyrazol-4-yl]-1,6-naphthyridin-5-amine], the IC50 at 2 h at hERG (setting [4]) and on hERG (setting [5]) was greater than 10000 nM in each case. Also, the IC50 on SYK lysate (as the free base) is no more than 100 nM; with Whole blood B cells (setting [4]) it was less than 1000 nM; in the series on Whole blood B cells (setting [6]), no more than 1000 nM.

Turning to `OCCn1cc(-c2cc3ncccc3c(NC[C@]3(F)CCCNC3)n2)cn1` [Example 6, 2-{4-[5-({[(3S)-3-fluoro-3-piperidinyl]methyl}amino)-1,6-naphthyridin-7-yl]-1H-pyrazol-1-yl}ethanol], the values for the IC50 at 2 h at hERG (setting [7]) and on hERG (setting [8]) were greater than 20000 nM and greater than 10000 nM, respectively. The IC50 at SYK lysate (hydrochloric acid salts) was no more than 316 nM; in the series with Whole blood B cells (setting [7]), less than 1000 nM; with Whole blood B cells (setting [8]), no more than 1000 nM.

With `FC1(CNc2nc(-c3cnn(C4CCCC4)c3)cc3ncccc23)CCCNC1` (racemic) [Example 8, 7-(1-cyclopentyl-1H-pyrazol-4-yl)-N-[(3-fluoro-3-piperidinyl)methyl]-1,6-naphthyridin-5-amine], the IC50 at 2 h on hERG (setting [4]) and on hERG (setting [5]) was greater than 10000 nM each time. Moreover, the values for the IC50 on SYK lysate (as the free base), in the series with Whole blood B cells (setting [4]) and in the series on Whole blood B cells (setting [6]) were no more than 100 nM, less than 1000 nM and no more than 1000 nM, respectively.

With `COc1cc(/C=C/C(=O)CC(=O)/C=C/c2ccc(O)c(OC)c2)ccc1O` [curcumin], the “tumour burden as measured by the total splenocyte number” value in the series with B lymphoma (BKS-2) is on record as “significant reduction”.

Regarding `COc1cc(Nc2ncc(F)c(Nc3ccc4c(n3)N(COP(=O)(O)O)C(=O)C(C)(C)O4)n2)cc(OC)c1OC` [Example R788, fostamatinib disodium], in series [1] (patients with DLBCL and CLL/SLL), the therapeutic benefit entry is “therapeutic benefit”. The tolerability entry in series [1] (patients with relapsed or refractory B-Cell NHL) is recorded as “well-tolerated”.

For `CC(C)(O)Cn1cc(-c2cc3ncccc3c(NC[C@]3(F)CCCNC3)n2)cn1` [Example 5, 1-{4-[5-({[(3S)-3-fluoro-3-piperidinyl]methyl}amino)-1,6-naphthyridin-7-yl]-1H-pyrazol-1-yl}-2-methyl-2-propanol], the IC50 at 2 h at hERG (setting [4]) and at hERG (setting [5]) was greater than 10000 nM each time. In addition, the IC50 at SYK lysate (as the free base) is no more than 100 nM; in the series with Whole blood B cells (setting [6]), no more than 1000 nM.

Regarding `FC1(CNc2nc(-c3cnn(Cc4ccccc4)c3)cc3ncccc23)CCCNC1` (racemic) [Example 10, N-[(3-fluoro-3-piperidinyl)methyl]-7-[1-(phenylmethyl)-1H-pyrazol-4-yl]-1,6-naphthyridin-5-amine], the IC50 at 2 h on hERG (setting [4]) and on hERG (setting [5]) was greater than 10000 nM each time. The IC50 on SYK lysate (as the free base) was no more than 100 nM; in the series with Whole blood B cells (setting [4]), less than 1000 nM; with Whole blood B cells (setting [6]), no more than 1000 nM.

Take `Oc1cccc(Nc2ncc(F)c(Nc3cccc(O)c3)n2)c1` [Example R112]: the efficacy versus placebo result in the series with allergic rhinitis [2] is recorded as “lack of efficacy”. In addition, in the series on allergic rhinitis [3], the PGD2 result is on record as “statistically significant decrease” and the clinical safety result is reported as “safe across a range of indicators”.

Regarding `FC(F)(F)Cn1cc(-c2cc3ncccc3c(NCC3(F)CCCNC3)n2)cn1` (single isomer, unassigned) [Example 9A, N-{[3-fluoro-3-piperidinyl]methyl}-7-[1-(2,2,2-trifluoroethyl)-1H-pyrazol-4-yl]-1,6-naphthyridin-5-amine], the IC50 at 2 h on hERG (setting [4]) and at hERG (setting [5]) was greater than 10000 nM each time. Moreover, the IC50 is no more than 100 nM on SYK lysate (as the free base), less than 1000 nM in the series on Whole blood B cells (setting [4]) and no more than 1000 nM in the series on Whole blood B cells (setting [6]).

Turning to `COCCn1cc(-c2cc3ncccc3c(NC[C@]3(F)CCCNC3)n2)cn1` [Example 7, N-{[(3S)-3-fluoro-3-piperidinyl]methyl}-7-{1-[2-(methyloxy)ethyl]-1H-pyrazol-4-yl}-1,6-naphthyridin-5-amine], the IC50 at 2 h on hERG (setting [4]) and on hERG (setting [5]) was greater than 10000 nM each time. In addition, the IC50 on SYK lysate (as the free base) was no more than 100 nM; with Whole blood B cells (setting [4]) it was less than 1000 nM; in the series on Whole blood B cells (setting [6]) it was no more than 1000 nM.
